The results in this text go back to patent US20160108027A1, “SUBSTITUTED BENZOXAZOLES” (BAYER PHARMA AKTIENGESELLSCHAFT, priority 2013, published 2016).

The target of assay [1] is T1, thrombin (Homo sapiens, UniProt P00734). The assay is described as follows: Measurement of the thrombin inhibition in buffer. Particulars: human thrombin 0.06 nmol/l in Tris buffer pH 7.4, 22° C., substrate Boc-Asp(OBzl)-Pro-Arg-AMC; in some cases means of individual determinations. In kind it is biochemical. On the procedure: To determine the thrombin inhibition of the substances listed above, a biochemical test system is constructed in which the conversion of a thrombin substrate is used for determining the enzymatic activity of human thrombin. Here, thrombin cleaves aminomethylcoumarin, which is measured fluorescently, from the peptic substrate. The determinations are carried out in microtitre plates.
Substances to be tested are dissolved in various concentrations in dimethyl sulphoxide and incubated for 15 min with human thrombin (0.06 nmol/l dissolved in 50 mmol/l of Tris buffer [C,C,C-tris(hydroxymethyl)aminomethane], 100 mmol/l of sodium chloride, 0.1% BSA [bovine serum albumin], pH 7.4) at 22° C. The substrate (5 μmol/l Boc-Asp(OBzl)-Pro-Arg-AMC from Bachem) is then added. After 30 min of incubation, the sample is excited at a wavelength of 360 nm and the emission is measured at 460 nm. The measured emissions of the test mixtures with test substance are compared to the control mixtures without test substance (only dimethyl sulphoxide instead of test substance in dimethyl sulphoxide) and IC50 values are calculated from the concentration/activity relationships. Representative activity data from this test are given in Table 1 below (in some cases as means of individual determinations): […]

The target of assay [2] is T1, thrombin. The assay is described as follows: Determination of the thrombin-inhibitory activity in plasma samples (ecarin-activated). The assay is classed as biochemical. Particulars: citrate plasma, ecarin activation, fluorogenic thrombin substrate; in some cases means of individual determinations. On the procedure:
To determine the inhibition of thrombin in plasma samples, plasma […] is activated by ecarin. Thrombin activity and/or its inhibition by potential inhibitors is/are then measured fluorenscently by addition of a substrate.
The substances to be tested are dissolved in various concentrations in dimethyl sulphoxide and diluted with water. In white 96-well flat-bottomed plates, 20 μl of substance dilution are mixed with 20 μl of ecarin solution (ecarin reagent, from Sigma E-0504, final concentration 20 mU per reaction) in Ca buffer (200 mM Hepes+560 mM sodium chloride+10 mM calcium chloride+0.4% PEG) or with 20 μl of Ca buffer (as unstimulated control). Furthermore, 20 μl of fluorogenic thrombin substrate (from Bachem 1-1120, final concentration 50 μmol/1) and 20 μl of citrate plasma (from Octapharma) are added, and the mixture is homogenized well. The plate is measured in a SpectraFluorplus Reader using a 360 nm excitation filter and a 465 nm emission filter every minute over 20 minutes. […] Representative activity data from this test are given in Table 2 below (in some cases as means of individual determinations): […]

Structures are written as SMILES.

By IC50 is commonly meant the concentration that gives 50% inhibition. Higher therefore signals weaker potency. For `COc1cc(C(=O)N2CC(C)(CC(C)O)OCC2CF)cc2nc(NCc3cc(Cl)ccn3)oc12` (racemic) [Example 22, (2-{[(4-Chloropyridin-2-yl)methyl]amino}-7-methoxy-1,3-benzoxazol-5-yl) [5-(fluoromethyl)-2-(2-hydroxypropyl)-2-methylmorpholin-4-yl]methanone], the results for the IC50 against thrombin [1] and against thrombin [2] were 1.7 nM and 11 nM, respectively.
`COc1cc(C(=O)N2CC(C)(CCO)OCC2(C)C)cc2nc(NCc3cc(Cl)ccn3)oc12` (racemic) [Example 32, (2-{[(4-Chloropyridin-2-yl)methyl]amino}-7-methoxy-1,3-benzoxazol-5-yl) [2-(2-hydroxyethyl)-2,5,5-trimethylmorpholin-4-yl]methanone]: the figures for the IC50 on thrombin [1] and at thrombin [2] were 12 nM and 36 nM, respectively.
Take `COc1cc(C(=O)N2CC(C)(CC(C)O)OCC2(C)C)cc2nc(NCc3cc(Cl)ccn3)oc12` (racemic) [Example 34, (2-{[(4-Chloropyridin-2-yl)methyl]amino}-7-methoxy-1,3-benzoxazol-5-yl) [2-(2-hydroxypropyl)-2,5,5-trimethylmorpholin-4-yl]methanone]: the IC50 against thrombin [1] was found to be 7.3 nM; against thrombin [2], 37 nM.
For the molecule `COc1cc(C(=O)N2CC(C)(C)OCC2(C)CO)cc2nc(NCc3cc(Cl)ccn3)oc12` (racemic) [Example 38, (2-{[(4-Chloropyridin-2-yl)methyl]amino}-7-methoxy-1,3-benzoxazol-5-yl) [5-(hydroxymethyl)-2,2,5-trimethylmorpholin-4-yl]methanone], the IC50 against thrombin [1] amounted to 13 nM; against thrombin [2], 22 nM.
`COCC1COC(C)(C)CN1C(=O)c1cc(OC)c2oc(NCc3cc(Cl)ccn3)nc2c1` (racemic) [Example 41, (2-{[(4-Chloropyridin-2-yl)methyl]amino}-7-methoxy-1,3-benzoxazol-5-yl) [5-(methoxymethyl)-2,2-dimethylmorpholin-4-yl]methanone]: the IC50 on thrombin [1] and on thrombin [2] was 50 nM throughout.
Turning to `COc1cc(C(=O)N2CC(C)(C)OCC2CF)cc2nc(NCc3cc(Cl)ccn3)oc12` (racemic) [Example 42, (2-{[(4-Chloropyridin-2-yl)methyl]amino}-7-methoxy-1,3-benzoxazol-5-yl) [5-(fluoromethyl)-2,2-dimethylmorpholin-4-yl]methanone], the IC50 was 27 nM on thrombin [1] and 34 nM against thrombin [2].
Take `COc1cc(C(=O)N2CC(C)OCC2(C)C)cc2nc(NCc3cc(Cl)ccn3)oc12` (racemic) [Example 44, (2-{[(4-Chloropyridin-2-yl)methyl]amino}-7-methoxy-1,3-benzoxazol-5-yl)(2,5,5-trimethylmorpholin-4-yl)methanone]: the IC50 at thrombin [1] was found to be 32 nM.
Turning to `COc1cc(C(=O)N2CC(C)OCC2CC(C)(C)O)cc2nc(NCc3cc(Cl)ccn3)oc12` (racemic) [Example 55, (2-{[(4-Chloropyridin-2-yl)methyl]amino}-7-methoxy-1,3-benzoxazol-5-yl) [5-(2-hydroxy-2-methylpropyl)-2-methylmorpholin-4-yl]methanone], the IC50 against thrombin [1] worked out at 21 nM; against thrombin [2], 33 nM.
Consider `COc1cc(C(=O)N2CC(C)OCC2CCO)cc2nc(NCc3cc(Cl)ccn3)oc12` (racemic) [Example 70, (2-{[(4-Chloropyridin-2-yl)methyl]amino}-7-methoxy-1,3-benzoxazol-5-yl) [5-(2-hydroxyethyl)-2-methylmorpholin-4-yl]methanone], for which the half-inhibitory concentration (IC50) against thrombin [1] came out at 38 nM; at thrombin [2] it was 74 nM.
For the molecule `COc1cc(C(=O)N2CC3(CC3)NC(=O)C2C)cc2nc(NCc3cc(Cl)ccn3)oc12` (racemic) [Example 76, 7-[(2-{[(4-Chloropyridin-2-yl)methyl]amino}-7-methoxy-1,3-benzoxazol-5-yl)carbonyl]-6-methyl-4,7-diazaspiro[2.5]octan-5-one], the IC50 against thrombin [1] was determined as 19 nM; at thrombin [2] it was 36 nM.
For `CCC1C(=O)NC2(CC2)CN1C(=O)c1cc(OC)c2oc(NCc3cc(Cl)ccn3)nc2c1` (racemic) [Example 78, 7-[(2-{[(4-Chloropyridin-2-yl)methyl]amino}-7-methoxy-1,3-benzoxazol-5-yl)carbonyl]-6-ethyl-4,7-diazaspiro[2.5]octan-5-one], the results for the IC50 against thrombin [1] and on thrombin [2] were 13 nM and 19 nM, respectively.
As for `COc1cc(C(=O)N2CC(C)(C)NC(=O)C2CC(N)=O)cc2nc(NCc3cc(Cl)ccn3)oc12` (racemic) [Example 82, 2-{1-[(2-{[(4-Chloropyridin-2-yl)methyl]amino}-7-methoxy-1,3-benzoxazol-5-yl)carbonyl]-5,5-dimethyl-3-oxopiperazin-2-yl}acetamide], on thrombin [1], it took 170 nM to reach half-maximal inhibition (IC50).
Consider `COc1cc(C(=O)N2CC(C)(C)NC(=O)C2CC#N)cc2nc(NCc3cc(Cl)ccn3)oc12` (racemic) [Example 83, {1-[(2-{[(4-Chloropyridin-2-yl)methyl]amino}-7-methoxy-1,3-benzoxazol-5-yl)carbonyl]-5,5-dimethyl-3-oxopiperazin-2-yl}acetonitrile], for which the half-maximal inhibitory concentration (IC50) at thrombin [1] was 36 nM; against thrombin [2], 62 nM.
`CCO[C@@H]1CC(CO)N(C(=O)c2cc(OC)c3oc(NCc4cc(Cl)ccn4)nc3c2)C1` (single isomer, unassigned) [Example 2]: the IC50 against thrombin [1] was found to be 6.2 nM; against thrombin [2], 19 nM.
On thrombin [1], `CCO[C@@H]1CC(CO)N(C(=O)c2cc(OC)c3oc(NCc4cc(Cl)ccn4)nc3c2)C1` (single isomer, unassigned) [Example 3] returned an IC50 of 330 nM.
Molecule `CCO[C@@H]1CC(CO)N(C(=O)c2cc(OC)c3oc(NC(C)c4cc(Cl)ccn4)nc3c2)C1` (single isomer, unassigned) [Example 5] registered an IC50 against thrombin [1] of 2800 nM.
Consider `COc1cc(C(=O)N2C[C@H](OCC(F)F)CC2CO)cc2nc(NCc3cc(Cl)ccn3)oc12` (single isomer, unassigned) [Example 7], for which the figures for the 50% inhibitory concentration (IC50) against thrombin [1] and against thrombin [2] were 37 nM and 70 nM, respectively.
In turn, `[2H]C([2H])(C)O[C@@H]1CC(CO)N(C(=O)c2cc(OC)c3oc(NC(C)c4cc(Cl)ccn4)nc3c2)C1` (single isomer, unassigned) [Example 8] yielded a half-inhibitory concentration (IC50) at thrombin [1] of 2600 nM.
As to `[2H]C([2H])(C)O[C@@H]1CC(CC#N)N(C(=O)c2cc(OC)c3oc(NCc4cc(Cl)ccn4)nc3c2)C1` (single isomer, unassigned) [Example 9], the IC50 at thrombin [1] came out at 9.7 nM; against thrombin [2] it was 13 nM.
Take `COc1cc(C(=O)N2C[C@H](OC3CC3)C[C@H]2CO)cc2nc(NC(C)c3cc(Cl)ccn3)oc12` (single isomer, unassigned) [Example 14]: at thrombin [1], the IC50 was 550 nM.
Take `COc1cc(C(=O)N2C[C@H](OC3CC3)C[C@H]2CO)cc2nc(NC(C)c3cc(Cl)ccn3)oc12` (single isomer, unassigned) [Example 15]: the IC50 on thrombin [1] was 6.4 nM; at thrombin [2], 21 nM.
`COc1cc(C(=O)N2CC(C)(C)OCC2CC(C)O)cc2nc(NCc3cc(Cl)ccn3)oc12` (single isomer, unassigned) [Example 64, (2-{[(4-Chloropyridin-2-yl)methyl]amino}-7-methoxy-1,3-benzoxazol-5-yl) [5-(2-hydroxypropyl)-2,2-dimethylmorpholin-4-yl]methanone]: inhibition against thrombin [1] was half-maximal at 44 nM (IC50).
In the case of `COc1cc(C(=O)N2CC(C)OCC2CC(C)O)cc2nc(NCc3cc(Cl)ccn3)oc12` (single isomer, unassigned) [Example 66, (2-{[(4-Chloropyridin-2-yl)methyl]amino}-7-methoxy-1,3-benzoxazol-5-yl) [5-(2-hydroxypropyl)-2-methylmorpholin-4-yl]methanone], the IC50 against thrombin [1] stood at 28 nM.
The same measure, in the same setting: the result for `COc1cc(C(=O)N2CC(C)OCC2CCO)cc2nc(NCc3cc(Cl)ccn3)oc12` (single isomer, unassigned) [Example 71, (2-{[(4-Chloropyridin-2-yl)methyl]amino}-7-methoxy-1,3-benzoxazol-5-yl) [5-(2-hydroxyethyl)-2-methylmorpholin-4-yl]methanone] reads 97 nM; that for `COc1cc(C(=O)N2CC(C)CCC2CC2(O)CC2)cc2nc(NCc3cc(Cl)ccn3)oc12` (single isomer, unassigned) [Example 88, (2-{[(4-Chloropyridin-2-yl)methyl]amino}-7-methoxy-1,3-benzoxazol-5-yl){2-[(1-hydroxycyclopropyl)methyl]-5-methylpiperidin-1-yl}methanone], 6.6 nM.
